Like-named read-outs stand apart in the source and are kept apart here.
How the values were obtained:
Format in all cases: cell-based
RSV B Washington strain = experiment: RSV B-induced CPE in Hep2 cells; settings: human respiratory syncytial virus; for IC50: HEp-2, 144 h, read-out: RSV B CPE IC50
Description: (§1) Biological Testing: Experimental Methods Assessment of RSV Induced CPE in Hep2 Cells
(§2) Hep2 cells were seeded (10^3/well/50 μL) in 384-well plates (Catalogue number 353962, BD Falcon, Oxford, UK) in 5% serum free-DMEM containing 2 mM L-glutamine and 1 mM sodium pyruvate one day before infection. RSV A2 strain (#0709161v, NCPV, Public Health England, Wiltshire) or RSV B Washington strain (VR-1580, ATCC, Manassas, Va. 20108) virus solutions were prepared in serum free-DMEM with 2 mM L-glutamine and 1 mM sodium pyruvate, and then added (50 μL/well) to achieve a final virus concentration of 1 MOI for RSV A and 0.1MOI for RSV B. Simultaneously test compounds (0.5 μL DMSO solution) were added to 100 μL of Hep2 cell culture with virus solution to provide a final DMSO solution of 0.5%. Plates were incubated (37° C./5% CO2) for 5 days for studies using RSV A2 strain or 6 days for those using RSV B strain, and then resazurin sodium salt (5 μL of 0.03% solution; Sigma-Aldrich, Dorset, UK) was added to each well and the plate incubated for a further 6 hr (37° C. and 5% CO2). The fluorescence of each well [545 nm (excitation)/590 nm (emission)] was determined using a multi-scanner (Clariostar: BMG, Buckinghamshire, UK). The percentage inhibition for each well was calculated and the IC50, IC75 and IC90 values were calculated from the concentration-response curve generated for each test compound.

RSV A2 strain = experiment: RSV A2-induced CPE in Hep2 cells; settings: human respiratory syncytial virus; for IC50: HEp-2, 120 h, read-out: RSV A2 CPE IC50
Description: as §1, §2

[1] = Cell viability: resazurin assay in Hep2 cells; settings: human, 5 days incubation
Description: Cell Viability: Resazurin Assay Hep2 cells were seeded in 384-well plates (10^3/well/50 μL; BD Falcon Ref 353962) in FBS DMEM (5%, containing 2 mM L-glutamine and 1 mM sodium pyruvate) one day before experimentation. Serum-free DMEM (50 μL) was added to test wells while for control wells the media was removed and sterile water (100 μL) was added. Test compounds (0.5 μL DMSO solution) were added to give a final DMSO concentration of 0.5%. Hep2 cells were incubated with each test compound for 5 days (37° C./5% CO2 in 5% FBS) and then resazurin stock solution (5 μL; 0.03%) was added to each well and the plate incubated further for a further 6 hrs (37° C./5% CO2). The fluorescence of each well at 545 nm (excitation) and 590 nm (emission) was determined using a multi-scanner (Clariostar: BMG Labtech). The percentage loss of cell viability was calculated for each well relative to vehicle (0.5% DMSO) treatment. Where appropriate, a CC50 value was calculated from the concentration-response curve generated from the concentration-response curve for each test compound.

[2] = test system: RSV A2 F-protein expression; experiment: RSV A2 F-protein expression in BEAS2B bronchial epithelial cells; settings: human respiratory syncytial virus, BEAS-2B, 72 h, read-out: RSV A2 F-protein IC50
Description: Assessment of RSV F Protein Expression in BEAS2B Bronchial Epithelial Cells
An early event which follows the infection of epithelial cells by RSV is the expression of RSV F-protein on the cells' surface. BEAS2B cells (SV40-immortalised human bronchial epithelial cell line) were grown in 96 well plates. Once more than 70% confluent, cells were infected with RSV A2 (#0709161v, NCPV, Public Health England, Wiltshire) at an MOI of 0.01 in clear RPMI-1640 medium (Life technologies, Paisley, UK) with 2% FBS (Life technologies, Paisley, UK), and incubated for 3 days (37° C./5% CO2).
Supernatant was aspirated and the cells were fixed with 4% formaldehyde (100 μL in PBS solution) for 20 min, washed 3 times with washing buffer (200 μL; PBS containing 0.05% Tween-20) and incubated with blocking solution (100 μL; 5% Marvel milk in PBS) for 1 hr. Cells were then washed with washing buffer (200 μL) and incubated for 1 hr at 37° C. with anti-RSV (2F7; mouse monoclonal, lot 160290, Cat. No. ab43812, Abcam plc, Cambridge, UK) F-fusion protein antibody (50 μL; prepared at a 1:1000 dilution in 5% milk/PBS-tween). After washing, cells were incubated with an HRP-conjugated anti-mouse IgG antibody (50 μL prepared at a 1:2000 dilution in 5% milk in PBS; lot 00095437, Cat. No. P0447, Dako UK Ltd, Cambridgeshire, UK) for 1 hr. Cells were washed twice with washing buffer and once with PBS. TMB substrate (100 μL; substrate reagent pack lot 320436, Cat. No. DY999, R&D Systems, Inc. Abingdon, UK) was then added and the reaction was stopped by the addition of aq sulfuric acid (50 μL; 2N). The resultant signal was determined colourimetrically (OD: 450 nm with a reference wavelength of 655 nm) in a microplate reader (Multiskan FC®, ThermoFisher Scientific). Cells were then washed and 1% crystal violet solution (50 μL; lot SLB4576, Cat. No. HT90132-1L, Sigma-Aldrich) was applied for 30 min. After washing with PBS (200 μL) 3 times, 1% SDS (100 μL) was added to each well, and plates were shaken lightly for 1 hr prior to reading the absorbance at 595 nm. The measured OD450-655 readings were corrected for cell number by dividing the OD450-655 by the OD595 readings. The percentage inhibition for each well was calculated and the IC50 value derived from the concentration-response curve generated for each test compound.

Row | Compound | IC50 (RSV B Washington strain; Hep2 cells, RSV B Washington 0.1 MOI, 6 days, resazurin) [nM] | inhibition at 1 µg/mL (RSV B Washington strain; HEp-2, Hep2 cells, at 1 μg/mL, read-out: RSV B CPE % Inhibition) [%] | IC50 (RSV A2 strain; Hep2 cells, RSV A2 1 MOI, 5 days, resazurin) [nM] | inhibition at 0.01 µg/mL (RSV A2 strain; HEp-2, Hep2 cells, at 0.01 μg/mL (footnote 2), read-out: RSV A2 CPE % Inhibition) [%] | CC50 at 5 days [1] [µM] | IC50 [2] [nM] | IC50 (RSV B Washington strain) [nM] | inhibition at 1 µg/mL (RSV B Washington strain; HEp-2, read-out: RSV B CPE % Inhibition) [%] | IC50 (RSV A2 strain) [nM] | inhibition at 0.01 µg/mL (RSV A2 strain; HEp-2, read-out: RSV A2 CPE % Inhibition) [%]
1 | Cc1ccc(C(=O)Nc2ccc(C(=O)N3CCc4cc(-c5nc6ccccc6[nH]5)sc4-c4ccccc43)cc2)c(N2CC3(CCOCC3)C2)n1 [Example 2, N-(4-(2-(1H-Benzo[d]imidazol-2-yl)-5,6-dihydro-4H-benzo[b]thieno[2,3-d]azepine-6-carbonyl)phenyl)-6-methyl-2-(7-oxa-2-azaspiro[3,5]nonan-2-yl)nicotinamide] | 9.6 | 100 | 0.23 | 90 | > 14.7 | 1.6 |  |  |  | 
2 | CCc1cccc2nc(-c3cc4c(s3)-c3ccccc3N(C(=O)c3ccc(NC(=O)c5cc(C)cnc5N5CC6(CCOCC6)C5)cc3)CC4)[nH]c12 [Example 3, N-(4-(2-(7-Ethyl-1H-benzo[d]imidazol-2-yl)-5,6-dihydro-4H-benzo[b]thieno[2,3-d]azepine-6-carbonyl)phenyl)-5-methyl-2-(7-oxa-2-azaspiro[3.5]nonan-2-yl)nicotinamide] |  |  |  |  | > 14.1 | 0.78 | 8.6 | 100 | 2.6 | 100
